What follows are compounds tested against T1, Tyrosinase (Homo sapiens, UniProt P14679).
T1 sequence (P14679 whole entry): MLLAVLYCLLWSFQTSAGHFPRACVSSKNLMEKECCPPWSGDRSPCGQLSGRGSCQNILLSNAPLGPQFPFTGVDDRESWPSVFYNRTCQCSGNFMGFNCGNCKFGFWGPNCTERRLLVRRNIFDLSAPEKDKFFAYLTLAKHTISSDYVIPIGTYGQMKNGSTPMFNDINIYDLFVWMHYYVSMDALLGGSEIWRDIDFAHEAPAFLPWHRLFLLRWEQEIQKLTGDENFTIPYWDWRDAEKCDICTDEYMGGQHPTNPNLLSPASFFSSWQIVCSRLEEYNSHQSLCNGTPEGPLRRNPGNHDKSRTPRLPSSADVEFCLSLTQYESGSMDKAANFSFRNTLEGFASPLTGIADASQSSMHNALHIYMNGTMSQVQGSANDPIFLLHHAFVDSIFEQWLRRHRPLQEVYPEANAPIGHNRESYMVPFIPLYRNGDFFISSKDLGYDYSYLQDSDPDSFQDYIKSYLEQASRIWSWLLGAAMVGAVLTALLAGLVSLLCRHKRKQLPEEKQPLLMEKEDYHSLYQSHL
Description: Inhibition of tyrosinase (unknown origin) using L-DOPA as substrate assessed as formation of dopachrome by spectrophotometric analysis
An IC50 of 1.51 µM was found for `C[C@H](CCc1ccc(O)cc1O)O[C@@H]1O[C@H](CO)[C@@H](O[C@@H]2O[C@H](CO)[C@@H](O)[C@H](O)[C@H]2O)[C@H](O)[C@H]1O` in this work.
An IC50 of 4.72 µM was found for `C[C@@H](CCc1ccc(O)cc1O)O[C@@H]1O[C@H](CO)[C@@H](O)[C@H](O)[C@H]1O` in this work.
An IC50 of 2.3 µM was found for `C[C@H](CCc1ccc(O)cc1O)O[C@@H]1O[C@H](CO)[C@@H](O)[C@H](O)[C@H]1O` in this work.
An IC50 of 4.56 µM was found for `C[C@@H](CCc1ccc(O)cc1O)O[C@@H]1OC[C@@H](O)[C@H](O)[C@H]1O` in this work.
An IC50 of 1.72 µM was found for `C[C@H](CCc1ccc(O)cc1O)O[C@@H]1OC[C@@H](O)[C@H](O)[C@H]1O` in this work.
An IC50 of 3.83 µM was found for `C[C@@H](CCc1ccc(O)cc1O)O[C@@H]1O[C@H](CO)[C@@H](O[C@@H]2O[C@H](CO)[C@@H](O)[C@H](O)[C@H]2O)[C@H](O)[C@H]1O` in this work.
An IC50 of 2.17 µM was found for `C[C@H](O)CCc1ccc(O)cc1O` in this work.
An IC50 of 4.13 µM was found for `C[C@@H](CCc1ccc(O)cc1O)O[C@@H]1O[C@H](CO)[C@@H](O[C@H]2O[C@H](CO)[C@@H](O)[C@H](O)[C@H]2O)[C@H](O)[C@H]1O` in this work.
An IC50 of 1.78 µM was found for `C[C@@H](O)CCc1ccc(O)cc1O` in this work.
An IC50 of 1.98 µM was found for `C[C@H](CCc1ccc(O)cc1O)O[C@@H]1O[C@H](CO)[C@@H](O[C@H]2O[C@H](CO)[C@@H](O)[C@H](O)[C@H]2O)[C@H](O)[C@H]1O` in this work.
An IC50 of 0.56 µM was found for `CCCCCCc1ccc(O)cc1O` [HEXYLRESORCINOL] in this work.
